Test results taken from article PMC9422153, “A novel antibiotic combination of linezolid and polymyxin B octapeptide PBOP against clinical Pseudomonas aeruginosa strains” (Annals of Clinical Microbiology and Antimicrobials, 2022).
In brackets after ≈: the same amount, converted by molar mass. Like-named read-outs stand apart in the source and are kept apart here. Bridge positions count the residues as written; N and C are the ends. Square brackets hold non-standard residues; d marks the D form. Peptide text beside a SMILES is read from it. Dab = NCC[C@H](N)C(=O)O

Tests used:
P. aeruginosa ATCC27853 = test: MIC, micro-dilution method; type: cell-based; conditions: Pseudomonas aeruginosa
Experimental: (§1) The MICs (minimal inhibitory concentrations) were determined for different P. aeruginosa strains using micro-dilution method, with a concentration of 1 × 10^5 CFU/mL on LB broth for 24 h, according to the published procedures. The experiment was carried out in three repeats.

P. aeruginosa PAB41 = test: MIC, micro-dilution method; type: cell-based; conditions: Pseudomonas aeruginosa
Experimental: as §1

P. aeruginosa PA14 [1] = test: MIC, micro-dilution method; type: cell-based; conditions: Pseudomonas aeruginosa
Experimental: as §1

P. aeruginosa PA2 = test: MIC, micro-dilution method; type: cell-based; conditions: Pseudomonas aeruginosa
Experimental: as §1

PA2 = test: Time-kill assay, bacterial burdens in vitro; type: cell-based, Pseudomonas aeruginosa; conditions: PA2, 1 × 10^5 CFU in 96-well plates; 1 h, 6 h, 12 h, 24 h; LP compared to single-treated groups
Experimental: (§2) To explore the antibacterial activity of LP combination in the P. aeruginosa in vitro, PA14 were cultured in 96-well plates and were treated with PBS, linezolid, PBOP or LP for 1 h, 6 h, 12 h, and 24 h.
(§3) A1–A4 1 × 10^5 CFU of PA14 were seeded in 96-well plates and treated with PBS, linezolid, PBOP or combination of linezolid and PBOP (LP) for 1 h (A1), 6 h (A2), 12 h (A3), and 24 h (A4). The bacteria burdens on the LB agar plates were counted. B1–B4 1 × 10^5 CFU of PA2 were seeded in 96-well plates and treated with PBS, linezolid, PBOP or LP for 1 h (B1), 6 h (B2), 12 h (B3), and 24 h (B4). C1–C4 1 × 10^5 CFU of PAB41 were seeded in 96-well plates and treated with PBS, linezolid, PBOP or LP for 1 h (C1), 6 h (C2), 12 h (C3), and 24 h (C4). The bacteria burdens were determined as described above.

PAB41 = test: Time-kill assay, bacterial burdens in vitro; type: cell-based, Pseudomonas aeruginosa; conditions: PAB41, 1 × 10^5 CFU in 96-well plates; 1 h, 6 h, 12 h, 24 h; LP compared to single-treated groups
Experimental: as §2, §3

[2] = test system: C. elegans infected with PA14; test: C. elegans infection model; type: in vivo, Caenorhabditis elegans; conditions: PA14 infection on SK plate, linezolid 8 μg/mL, PBOP 16 μg/mL; for bacterial loads inside C. elegans: 12 h and 24 h post infection; for survival of infected C. elegans: monitored 7 days
Experimental: To determine the protective effect of LP, all groups of C. elegans were infected with PA14 in slow killing (SK) agar plate and were treated with PBS, linezolid (8 μg/mL), PBOP (16 μg/mL) or LP. The mortality of the infected C. elegans was evaluated for 7 days. […] The bacterial loads inside the C. elegans were counted at 12 h or 24 h post-infection as previously described. Briefly, the infected nematodes were mixed with silicon carbide particles and vortexed at maximum speed for one minute. The resulting suspension was serially diluted and plated on a selective agar plate to determine the bacterial CFU. This experiment was performed in triplicate.

[3] = test system: all tested P. aeruginosa strains; type: cell-based, Pseudomonas aeruginosa; conditions: 24 h
Experimental: as §1

P. aeruginosa PA14 [4] = type: cell-based, Pseudomonas aeruginosa
Experimental: Synergistic effect of the 6 polymyxin B or polymyxin E derivatives in combination with 5 conventional antibacterial agents was detected using the checkerboard method as described on the previous study. Briefly, the serial concentrations of test compounds were prepared by a two-dimensional array. The tested dilutions were based on the MICs of the two different compounds. The fractional inhibitory concentration index (FIC) was applied to illuminate the checkerboard test based on formulas as follows: FIC Index = […] = MICA+B/MICA, and FICB = MICB+A/MICB. The value of MICA+B is indicated as the MIC value of Compound A with Compound B, and equally for MICB+A. […] The experiments were repeated in triplicate.

[5] = P. aeruginosa ATCC27853, micro-dilution, 1 × 10^5 CFU/mL, LB broth, 24 h, three repeats, read-out: MIC
[6] = P. aeruginosa PAB41 (carbapenem-resistant clinical strain), micro-dilution, 1 × 10^5 CFU/mL, LB broth, 24 h, three repeats, read-out: MIC
[7] = P. aeruginosa PA14, micro-dilution, 1 × 10^5 CFU/mL, LB broth, 24 h, three repeats, read-out: MIC
[8] = P. aeruginosa PA2 (multidrug-resistant clinical strain), micro-dilution, 1 × 10^5 CFU/mL, LB broth, 24 h, three repeats, read-out: MIC

Row | SMILES | MIC (P. aeruginosa ATCC27853; [5]) | MIC (P. aeruginosa PAB41; [6]) | MIC (P. aeruginosa PA14 [1]; [7]) | MIC (P. aeruginosa PA2; [8]) | MIC [3] | FIC (lowest FIC Index) combined with Erythromycin (P. aeruginosa PA14 [4]) | FIC (lowest FIC Index) combined with Lincomycin (P. aeruginosa PA14 [4]) | FIC (lowest FIC Index) combined with Linezolid (P. aeruginosa PA14 [4]) | FIC (lowest FIC Index) combined with Nisin (P. aeruginosa PA14 [4]) | FIC (lowest FIC Index) combined with Vancomycin (P. aeruginosa PA14 [4]) | other results
1 | CC1(C)S[C@@H]2[C@H](NC(=O)[C@H](N)c3ccccc3)C(=O)N2[C@H]1C(=O)O [Ampicillin, ampicillin] | 4 µg/mL (≈ 11.4 µM) | 8 µg/mL (≈ 22.9 µM) | – | – | – | – | – | – | – | – | –
2 | CN(C)[C@@H]1C(O)=C(C(N)=O)C(=O)[C@@]2(O)C(O)=C3C(=O)c4c(O)ccc(Cl)c4[C@@](C)(O)[C@H]3C[C@@H]12 [Chlortetracycline, chlortetracycline] | 4 µg/mL (≈ 8.35 µM) | 8 µg/mL (≈ 16.7 µM) | 4 µg/mL (≈ 8.35 µM) | 4 µg/mL (≈ 8.35 µM) | – | – | – | – | – | – | –
3 | CC[C@H]1OC(=O)[C@H](C)[C@@H](O[C@H]2C[C@@](C)(OC)[C@@H](O)[C@H](C)O2)[C@H](C)[C@@H](O[C@@H]2O[C@H](C)C[C@H](N(C)C)[C@H]2O)[C@](C)(O)C[C@@H](C)C(=O)[C@H](C)[C@@H](O)[C@]1(C)O [Erythromycin, erythromycin] | > 256 µg/mL | > 256 µg/mL | > 256 µg/mL | > 256 µg/mL | – | – | – | – | – | – | –
4 | CCC[C@@H]1C[C@@H](C(=O)N[C@@H]([C@H]2O[C@H](SC)[C@H](O)[C@@H](O)[C@H]2O)[C@@H](C)O)N(C)C1 [Lincomycin, lincomycin] | > 256 µg/mL | > 256 µg/mL | > 256 µg/mL | > 256 µg/mL | – | – | – | – | – | – | –
5 | CC(=O)NC[C@H]1CN(c2ccc(N3CCOCC3)c(F)c2)C(=O)O1 [Linezolid, linezolid] | > 256 µg/mL | > 256 µg/mL | > 256 µg/mL | > 256 µg/mL | – | – | – | – | – | – | bacterial CFU / bactericidal activity (PA2): no remarkably bactericidal activity; bacterial CFU / bactericidal activity (PAB41): no remarkably bactericidal activity; bacterial loads inside C. elegans [2]: a great number of bacteria were detected; survival of infected C. elegans [2]: died at day 3
6 | CC1COc2c(N3CCN(C)CC3)c(F)cc3c(=O)c(C(=O)O)cn1c23 (stereo not drawn) [Ofloxacin, ofloxacin] | 0.5 µg/mL (≈ 1.38 µM) | 1 µg/mL (≈ 2.77 µM) | 0.5 µg/mL (≈ 1.38 µM) | 0.5 µg/mL (≈ 1.38 µM) | – | – | – | – | – | – | –
7 | CN[C@H](CC(C)C)C(=O)N[C@H]1C(=O)N[C@@H](CC(N)=O)C(=O)N[C@H]2C(=O)N[C@H]3C(=O)N[C@H](C(=O)N[C@H](C(=O)O)c4cc(O)cc(O)c4-c4cc3ccc4O)[C@H](O)c3ccc(c(Cl)c3)Oc3cc2cc(c3O[C@@H]2O[C@H](CO)[C@@H](O)[C@H](O)[C@H]2O[C@H]2C[C@](C)(N)[C@H](O)[C@H](C)O2)Oc2ccc(cc2Cl)[C@H]1O [Vancomycin, vancomycin] | – | – | – | – | – | – | – | – | – | – | MIC (P. aeruginosa ATCC27853; ATCC27853, 24 h): > 256 µg/mL; MIC (P. aeruginosa PA14 [1]; PA14, 24 h): > 256 µg/mL; MIC (P. aeruginosa PA2; PA2, 24 h): > 256 µg/mL; MIC (P. aeruginosa PAB41; PAB41, 24 h): > 256 µg/mL

The next lines start with results.

Row | MIC (P. aeruginosa ATCC27853; [5]) | MIC (P. aeruginosa PAB41; [6]) | MIC (P. aeruginosa PA14 [1]; [7]) | MIC (P. aeruginosa PA2; [8]) | MIC [3] | SMILES | FIC (lowest FIC Index) combined with Erythromycin (P. aeruginosa PA14 [4]) | FIC (lowest FIC Index) combined with Lincomycin (P. aeruginosa PA14 [4]) | FIC (lowest FIC Index) combined with Linezolid (P. aeruginosa PA14 [4]) | FIC (lowest FIC Index) combined with Nisin (P. aeruginosa PA14 [4]) | FIC (lowest FIC Index) combined with Vancomycin (P. aeruginosa PA14 [4]) | other results
8 | – | – | – | – | over 256 µg/mL | CC(C)C[C@@H]1NC(=O)[C@@H](Cc2ccccc2)NC(=O)[C@H](CCN)NC(=O)[C@@H](N)CCNC(=O)[C@H]([C@@H](C)O)NC(=O)[C@H](CCN)NC(=O)[C@H](CCN)NC1=O [PBHP, polymyxin B heptapeptide] (H-[Dab][Dab][dF]L[Dab][Dab]T; lactam 1-C (inferred); N-terminus assumed) | 0.281 | 0.188 | 0.141 | 0.375 | 0.141 | –
9 | – | – | – | – | over 256 µg/mL | CC(C)C[C@@H]1NC(=O)[C@@H](Cc2ccccc2)NC(=O)[C@H](CCN)NC(=O)[C@@H](NC(=O)[C@H](CCN)NC(=O)[C@@H](N)[C@@H](C)O)CCNC(=O)[C@H]([C@@H](C)O)NC(=O)[C@H](CCN)NC(=O)[C@H](CCN)NC1=O [PBNP, polymyxin B nonapeptide] (H-T[Dab][Dab][Dab][dF]L[Dab][Dab]T; lactam 3-C (inferred); N-terminus assumed) | 0.188 | 0.156 | 0.156 | 0.250 | 0.250 | –
10 | – | – | – | – | over 256 µg/mL | CC(C)C[C@@H]1NC(=O)[C@@H](Cc2ccccc2)NC(=O)[C@H](CCN)NC(=O)[C@@H](NC(=O)[C@@H](N)CCN)CCNC(=O)[C@H]([C@@H](C)O)NC(=O)[C@H](CCN)NC(=O)[C@H](CCN)NC1=O [PBOP, polymyxin B octapeptide] (H-[Dab][Dab][Dab][dF]L[Dab][Dab]T; lactam 2-C (inferred); N-terminus assumed) | 0.156 | 0.094 | 0.078 | 0.313 | 0.156 | bacterial CFU / bactericidal activity (PA2): no remarkably bactericidal activity; bacterial CFU / bactericidal activity (PAB41): no remarkably bactericidal activity; bacterial loads inside C. elegans [2]: a great number of bacteria were detected; survival of infected C. elegans [2]: died at day 3
11 | – | – | – | – | over 256 µg/mL | CC(C)C[C@@H]1NC(=O)[C@@H](CC(C)C)NC(=O)[C@H](CCN)NC(=O)[C@@H](N)CCNC(=O)[C@H]([C@@H](C)O)NC(=O)[C@H](CCN)NC(=O)[C@H](CCN)NC1=O [PEHP, polymyxin E heptapeptide] (H-[Dab][Dab][dL]L[Dab][Dab]T; lactam 1-C (inferred); N-terminus assumed) | 0.258 | 0.250 | 0.141 | 0.266 | 0.156 | –
12 | – | – | – | – | over 256 µg/mL | CC(C)C[C@@H]1NC(=O)[C@@H](CC(C)C)NC(=O)[C@H](CCN)NC(=O)[C@@H](NC(=O)[C@H](CCN)NC(=O)[C@@H](N)[C@@H](C)O)CCNC(=O)[C@H]([C@@H](C)O)NC(=O)[C@H](CCN)NC(=O)[C@H](CCN)NC1=O [PENP, polymyxin E nonapeptide] (H-T[Dab][Dab][Dab][dL]L[Dab][Dab]T; lactam 3-C (inferred); N-terminus assumed) | 0.281 | 0.125 | 0.281 | 0.375 | 0.188 | –
13 | – | – | – | – | over 256 µg/mL | CC(C)C[C@@H]1NC(=O)[C@@H](CC(C)C)NC(=O)[C@H](CCN)NC(=O)[C@@H](NC(=O)[C@@H](N)CCN)CCNC(=O)[C@H]([C@@H](C)O)NC(=O)[C@H](CCN)NC(=O)[C@H](CCN)NC1=O [PEOP, polymyxin E octapeptide] (H-[Dab][Dab][Dab][dL]L[Dab][Dab]T; lactam 2-C (inferred); N-terminus assumed) | 0.313 | 0.141 | 0.188 | 0.313 | 0.125 | –
14 | 8 µg/mL (≈ 23.9 µM) | 4 µg/mL (≈ 12 µM) | 8 µg/mL (≈ 23.9 µM) | 4 µg/mL (≈ 12 µM) | – | CC1(C)S[C@@H]2[C@H](NC(=O)Cc3ccccc3)C(=O)N2[C@H]1C(=O)O [Penicillin G, penicillin G] | – | – | – | – | – | –
15 | 4 µg/mL (≈ 6.83 µM) | 2 µg/mL (≈ 3.41 µM) | 2 µg/mL (≈ 3.41 µM) | 4 µg/mL (≈ 6.83 µM) | – | CN(C)c1cc(NC(=O)CNC(C)(C)C)c(O)c2c1C[C@H]1C[C@H]3[C@H](N(C)C)C(O)=C(C(N)=O)C(=O)[C@@]3(O)C(O)=C1C2=O [Tigecycline, tigecycline] | – | – | – | – | – | –
